# Source: patent publication US20210246109A1, “POTENT AND SELECTIVE INHIBITORS OF CYTOCHROME P450” (University of Kentucky Research Foundation, priority 2020, published 2021)
# “And” between values parts separate entries of the source, which are not always exact repeats. Equal entries are not always repeated. Where two headings read alike, the source gives them in different places.
# Assays:
# HEK = experiment: Cytotoxicity, resazurin, 72 hours after compound addition; format: cell-based
# Method: Cytotoxicity was assessed at 72 hours after compound addition using resazurin. The compounds that function as selective 1B1 inhibitors had no effect on cell health. This is an essential feature for any chemopreventative agent or molecules intended to block the detrimental action of an enzyme.
# CYP1B1 = target: T1, CYP1B1 (Homo sapiens, UniProt Q16678); experiment: EROD assay in inducible CYP1B1 cell line; format: cell-based; settings: for IC50: Table 3, read-out: IC50 1B1
# T1 construct: expressed in transfected cells
# T1 sequence (Q16678 1-543): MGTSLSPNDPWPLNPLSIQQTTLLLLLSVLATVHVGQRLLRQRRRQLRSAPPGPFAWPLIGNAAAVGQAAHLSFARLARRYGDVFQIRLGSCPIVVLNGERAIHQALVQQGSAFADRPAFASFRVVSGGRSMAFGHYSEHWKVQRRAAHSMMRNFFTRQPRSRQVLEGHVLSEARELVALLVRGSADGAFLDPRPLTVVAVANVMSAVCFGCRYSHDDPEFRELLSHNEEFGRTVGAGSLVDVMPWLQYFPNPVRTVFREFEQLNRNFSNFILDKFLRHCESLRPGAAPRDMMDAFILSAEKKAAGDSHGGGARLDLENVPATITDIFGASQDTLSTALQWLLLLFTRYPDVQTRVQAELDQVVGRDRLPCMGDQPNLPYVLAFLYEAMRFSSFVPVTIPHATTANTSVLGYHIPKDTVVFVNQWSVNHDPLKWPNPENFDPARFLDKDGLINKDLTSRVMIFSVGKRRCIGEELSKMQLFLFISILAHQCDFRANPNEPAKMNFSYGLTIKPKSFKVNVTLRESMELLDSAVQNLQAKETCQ
# Method: (§1) The activity of the inhibitors was assessed in a novel cell based assay generated for the purpose of this project. Enzymatic turnover of CYP1B1 was measured using the ethoxy-resorufin-O-deethylase (EROD) assay with the fluorescent substrate, resorufin ethyl ether. Cell lines were generated where the gene for CYP1B1 alone or CYP1B1 and cytochrome P450 reductase (CPR) were both under the control of an inducible promoter. A cell line was generated for counter screening where the gene for CYP1A1 was used. CYP1A1 is the closest family member to CYP1B1.
# CYP1A1 = target: T2, CYP1A1 (Homo sapiens, UniProt P04798); experiment: EROD assay in CYP1A1 counter-screen cell line; format: cell-based; settings: Table 3; read-out: IC50 1A1
# T2 construct: expressed in transfected cells
# T2 sequence (P04798 1-512): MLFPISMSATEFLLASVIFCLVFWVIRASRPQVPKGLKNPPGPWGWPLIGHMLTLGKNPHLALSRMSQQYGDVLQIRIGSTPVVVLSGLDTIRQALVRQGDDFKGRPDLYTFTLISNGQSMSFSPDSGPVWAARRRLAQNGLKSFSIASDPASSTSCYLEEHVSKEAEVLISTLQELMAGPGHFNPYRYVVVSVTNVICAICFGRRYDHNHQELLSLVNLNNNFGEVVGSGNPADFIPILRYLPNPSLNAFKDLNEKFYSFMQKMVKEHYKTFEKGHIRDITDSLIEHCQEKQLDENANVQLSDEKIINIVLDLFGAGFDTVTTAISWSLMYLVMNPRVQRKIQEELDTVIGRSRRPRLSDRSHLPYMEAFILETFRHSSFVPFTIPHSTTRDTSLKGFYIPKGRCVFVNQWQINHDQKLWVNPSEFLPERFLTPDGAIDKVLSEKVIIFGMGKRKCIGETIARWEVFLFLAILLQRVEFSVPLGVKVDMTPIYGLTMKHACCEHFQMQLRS
# Method: as §1
# [1] = target: T3, pooled human liver microsomes (pHLMs) (Homo sapiens, UniProt P05177); experiment: EROD counterscreen in pooled human liver microsomes; format: biochemical; settings: human, microsomes, Table 3; read-out: IC50 pHLM
# T3 sequence (P05177 2-516): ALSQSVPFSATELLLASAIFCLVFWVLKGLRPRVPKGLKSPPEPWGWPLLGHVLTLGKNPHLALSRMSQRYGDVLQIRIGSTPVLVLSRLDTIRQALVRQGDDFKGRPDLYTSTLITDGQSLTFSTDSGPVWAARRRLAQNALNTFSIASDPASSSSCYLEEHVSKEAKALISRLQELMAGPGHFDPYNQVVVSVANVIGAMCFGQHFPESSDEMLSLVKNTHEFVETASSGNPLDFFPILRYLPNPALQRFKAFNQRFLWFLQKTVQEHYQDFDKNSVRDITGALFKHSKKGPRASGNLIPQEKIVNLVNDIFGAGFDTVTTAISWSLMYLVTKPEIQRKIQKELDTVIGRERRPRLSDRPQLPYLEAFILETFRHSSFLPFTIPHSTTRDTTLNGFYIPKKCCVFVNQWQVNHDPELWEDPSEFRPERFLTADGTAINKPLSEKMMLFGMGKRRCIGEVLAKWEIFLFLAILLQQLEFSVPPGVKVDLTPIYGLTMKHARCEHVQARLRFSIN
# Text: Human liver microsomes were used as a counterscreen to experimentally determine the magnitude of inhibitor selectivity.
SMILES,IC50 (CYP1A1),IC50 (CYP1B1),further results
"O=c1cc(-c2ccccc2)oc2c1ccc1ccccc12 [ANF, reference compound]",–,–,"IC50 (HEK; Table 1, 72 hours, resazurin, read-out: Cytotoxicity IC50): > 10 µM; IC50 (HEK; Table 3, HEK, read-out: HEK cytotoxicity): > 10 µM"
COc1ccc(/C=C/c2ccccc2)c(OC)c1 [Compound 1],–,–,"activity as CYP1B1 inhibitor, in words (CYP1B1): poor activity"
COc1ccc(/C=C/c2ccncc2)c(OC)c1 [Compound 6],–,–,"activity as CYP1B1 inhibitor, in words (CYP1B1): potent"
COc1ccc(/C=C/c2cc[n+](C)cn2)c(OC)c1 [Compound 7],–,–,"activity as CYP1B1 inhibitor, in words (CYP1B1): poor activity"
N#CCOc1ccc(/C=C/c2ccncn2)cc1 [Compound 13],–,–,"activity as CYP1B1 inhibitor, in words (CYP1B1): potent"
COc1ccc(/C=C/c2cc[n+](C)cn2)c(OC)c1.[I-] [GL461],> 10 µM,13.9 µM,"HEK cell viability % at 10 μM (HEK; Table 3, HEK): 103%"
COc1ccc(/C=C/c2ccccc2)c(OC)c1 [GL469],4.46 µM and > 10 µM,–,"IC50 [1]: 6 µM; HEK cell viability % at 10 μM (HEK; Table 3, HEK): 124.2%"
N#CCOc1ccc(-c2nc3ccccc3[nH]2)cc1 [GL509],5.5 µM and 3.5 µM,–,"IC50 [1]: 8.36 µM; HEK cell viability % at 10 μM (HEK; Table 3, HEK): 75%"
O=c1[nH]c(-c2ccccn2)nc2ccccc12 [GL518],–,2.44 µM,–
COc1ccc(-c2nc3ccccc3c(=O)n2CC#N)c(OC)c1 [GL519],> 10 µM,0.97 µM,"HEK cell viability % at 10 μM (HEK; Table 3, HEK): 88.7%"
COc1cc(OCC#N)ccc1-c1nc2ccccc2c(=O)[nH]1 [GL521],1.23 µM and 1.18 µM,0.00051 µM and 0.0013 µM,IC50 [1]: > 10 µM
N#CCOc1ccc(-c2nc3ccccc3[nH]2)cc1 [GL523],> 10 µM,–,"HEK cell viability % at 10 μM (HEK; Table 3, HEK): 93.4%"
N#CCOc1ccc(/C=N/c2ccccc2C(N)=O)cc1 [GL542],> 10 µM,0.051 µM,–
N#CCOc1ccc(-c2nc3ccccc3c(=O)[nH]2)c(OCC#N)c1 [GL545],4.4 µM,–,–
N#CCOc1ccc(-c2nc3ccccc3c(=O)[nH]2)cc1OCC#N [GL546],3.5 µM,0.0204 µM,–
COc1cc(-c2nc3ccc(I)cc3c(=O)[nH]2)ccc1OCC#N [GL551],0.56 µM,< 0.00025 µM,IC50 [1]: > 3 µM
COc1cc(-c2nc3ccc(C#Cc4ccccc4)cc3c(=O)[nH]2)ccc1OCC#N [GL552],> 10 µM,0.0018 µM,–
COc1ccc(-c2nc3ccccc3c(=O)[nH]2)cc1 [GL553],4.76 µM,0.0038 µM,–
COc1ccc(-c2nc(OCC#N)c3ccccc3n2)cc1 [GL554],3.33 µM,0.0035 µM,–
COc1ccc(-c2nc(OC)c3ccccc3n2)cc1 [GL556],2.59 µM,0.0067 µM,–
COc1cc(-c2nc(OCC#N)c3ccccc3n2)ccc1OCC#N [GL557],1.72 µM,< 0.0007 µM,–
COc1nc(-c2ccc(OCC#N)cc2)nc2ccccc12 [GL558],2.46 µM,< 0.0007 µM,–
N#CCOc1ccc(-c2nc(OCCCCCCBr)c3ccccc3n2)cc1 [GL564],1.94 µM,< 0.0025 µM,IC50 [1]: > 10 µM
N#CCOc1ccc(-c2nc(OCCCCCCN=[N+]=[N-])c3ccccc3n2)cc1 [GL565],1.87 µM,< 0.0025 µM,IC50 [1]: > 10 µM
CC(C)(C)OC(=O)NCCCOc1nc(-c2ccc(OCC#N)cc2)nc2ccccc12 [GL571],1.28 µM,< 0.0025 µM,IC50 [1]: > 10 µM
N#CCOc1ccc(-c2nc(OCCCN)c3ccccc3n2)cc1 [GL572],2.12 µM,< 0.0025 µM,IC50 [1]: > 10 µM
O=C(NCCCOc1ccc(CCc2ccncn2)cc1)OCCOCCOCCOC(=O)NC12CC3CC(CC(C3)C1)C2 [GL594],1.1 µM,9.4 µM,–
